Experiment: Free radicals generated inside a formulation containing perfume after UV irradiation (ESR, spin marker PCA)
Assay type: physicochemical
Details: 0.1% (w/w) perfume in formulation, diluted 1:10 in water, 0.01 mM PCA; UVB 23,5 W/m^2, UVA 180 W/m^2
Method: To measure the free radicals generation inside a formulation after UV irradiation, the concentration of a photostable spin marker added to the tested samples is followed by Electron Spin Resonance (ESR) spectroscopy before and after UV irradiation of the tested samples. The photostable spin marker will promptly react with the free radical generated in the formulation after UV irradiation.
0.1% (w/w) of the perfume to be tested is incorporated into the formulation, the formulation is then diluted in distillated water (1:10 dilution factor) and a water solution of the spin marker PCA (2,2,5,5,-tetramethyl pyrrolidine N-oxyl) is added to obtain a spin marker concentration of 0.01 mM. […] The sample is inserted in a capillary quartz tube to perform ESR measurement before and after 20 minutes of UV irradiation. The irradiances as integrated value over the spectral ranges of the solar simulator can exemplarily be E=23,5W/m^2 for UVB and 180W/m^2 for UVA.
The percentage of UV-induced free radicals inside the formulation containing the perfume to be tested serves as indicator to the sensitivity of said perfume.
The Electron Spin Resonance (ESR) measurements were performed with a high sensitive X-band bench top Electron Spin Resonance Spectrometer MiniScope MS300, supplied from Magnettech GmbH Berlin, Germany.
To measure the free radicals generation inside the formulation after UV irradiation, the concentration of a photostable spin marker added to the tested samples was followed by
Electron Spin Resonance (ESR) spectroscopy before and after UV irradiation of the tested samples. The photostable spin marker promptly reacted with the free radical generated in the formulation after UV irradiation.
0.1% (w/w) of the perfume to be tested (compare to Table 1) was incorporated into the formulation. The formulation was then diluted in distillated water (1:10 dilution factor) and a water solution of the spin marker PCA (2,2,5,5,-tetramethyl pyrrolidine N-oxyl) was added to obtain a spin marker concentration of 0.01 mM. Knowing the concentration of the spin trap PCA within the formulation, the amount of reduced PCA was calculated. The sample was inserted in a capillary quartz tube to perform ESR measurement before and after 20 minutes of UV irradiation. The irradiances as integrated value over the spectral ranges of the solar simulator were E=23,5 W/m^2 for UVB and 180 W/m^2 for UVA.

| % free radicals after 20 min UV irradiation [%] | Structure (SMILES) |
| --- | --- |
| 3.7 | CC(CC=O)CCCC(C)(C)O (stereo not shown) [Hydroxycitronellal] |
| 11.5 | O=c1ccc2ccccc2o1 [Coumarin, 2H-chromen-2-one] |
| 4.4 | OCc1ccccc1 [Benzyl Alcohol] |
| 17.5 | O=C(OCc1ccccc1)c1ccccc1O [Benzyl Salicylate, benzyl 2-hydroxybenzoate] |
| 6.6 | CC(C)=CCCC(C)CCO (stereo not shown) [Citronellol, 3,7-dimethyloct-6-en-1-ol] |
| 85.9 | COc1cc(C=O)ccc1O [Vanillin, 4-hydroxy-3-methoxybenzaldehyde] |
| 16.5 | CC(C)=CCCC(C)=CC=O [Citral, 3,7-dimethylocta-2,6-dienal] |
